Assay results taken from patent US20210046061A1, “METHODS AND COMPOSITIONS FOR TREATING HERPESVIRUS INDUCED CONDITIONS” (TRUSTEES OF BOSTON UNIVERSITY, priority 2015, published 2021).

Key:
[1] = system: viral TK (EBV thymidine kinase) transcript in P3HR1 cells; test: Thymidine kinase (TK) mRNA expression assay, quantitative real-time RT-PCR; format: cell-based, human; conditions: 24 hrs exposure, mRNA by RT-PCR
Description: (§1) To measure whether Chidamide could induce EBV associated transcripts, the induction of mRNA for the protein kinases TK (FIG. 1A) and BGLF4 (FIG. 1B) in EBV-positive lymphoma cell lines was measured after exposure to different concentrations of the short-chain fatty acid, sodium butyrate (NaB), or the benzamide, chidamide (chid), for 24 hrs. Transcripts were quantitated by quantitative real-time RT-PCR.
(§2) The EBV-positive B lymphoma cell line P3HR1 was used in the study. The P3HR1 cell line was originally derived from Burkitt's lymphoma patient. EBV maintains a latent state of replication in this cell line. These cells were maintained in RPMI 1640 with 10% fetal bovine serum containing 100 U penicillin per ml and 100 μg streptomycin per ml.
(§3) P3HR1 cells were seeded in 60 mm plates containing 3×10^6 cells in 3 ml of fresh growth media. Appropriate concentrations of HDAC inhibitors were added to the plate and cells were incubated in the presence of HDAC inhibitors for 6 h, 24 h, 48 h, or as needed. Cells were harvested by centrifugation and washed once in cold PBS. Total cellular RNA was then extracted. To measure the relative level of TK mRNA in various total RNA preparations, reverse transcription and quantitative PCR using real time PCR analysis were used. […] The relative level of TK expression in a sample was calculated following normalization of β-actin expression level.

[2] = system: BGLF4 (EBV-PK) transcript in P3HR1 cells; test: Protein kinase (BGLF4) mRNA expression assay, quantitative real-time RT-PCR; format: cell-based, human; conditions: 24 hrs exposure, mRNA by RT-PCR
Description: as §1, §2, §3

[3] = system: EBV-positive B lymphoma cell line P3HR1; test: Drug sensitivity assay: HDAC inhibitor plus ganciclovir, viable cell count by trypan blue; format: cell-based, human; conditions: both combined with ganciclovir; living cells counted on day 6
Description: To determine tumor cytotoxic activity of the combination of HDACi and GCV, EBV+ lymphoma cells were exposed to a range of concentrations of sodium butyrate or chidamide […] for 3 days and then to GCV alone for another 3 days (FIG. 1C). Efficacy of either sodium butyrate or chidamide in the combination treatment approach was then determined by enumerating living cells. A general experimental protocol is described below.
as §2
To test the sensitivity of EBV-positive lymphoma cells towards chidamide, P3HR1 cells were treated with chidamide in the presence of one anti-viral drug. At the end of the assay, the efficacy of chidamide was assessed by measuring the inhibition of cell growth compared to untreated cells.
Healthy, actively-growing P3HR1 cells were harvested and resuspended in fresh growth media. Cells were seeded in wells. […] On day 6, cell morphology was observed under a microscope and viable cell counts in each individual well was determined by the trypan blue dye exclusion method using an automated cell counter (Countess, Invitrogen).

EBV = EBV viral load in patient with post-transplant EBV positive lymphoma; format: in vivo, human; conditions: one patient; arginine butyrate and daily ganciclovir; after 3 weeks of treatment; before treatment (Week 1) 27,782
Description: (§4) Levels were determined before treatment (week1) and after 3 weeks of treatment (week 3).

CMV = CMV viral load in patient with post-transplant EBV positive lymphoma; format: in vivo, human; conditions: one patient; arginine butyrate and daily ganciclovir; after 3 weeks of treatment; before treatment (Week 1) 12,300
Description: as §4

HHV-6 = HHV-6 viral load in patient with post-transplant EBV positive lymphoma; format: in vivo, human; conditions: one patient; arginine butyrate and daily ganciclovir; after 3 weeks of treatment; before treatment (Week 1) 658,882
Description: as §4

[4] = system: relapsed or refractory EBV-positive lymphoid tumors; conditions: arginine butyrate and GCV; of 15 patients; cited from earlier work

| Compound | concentration at which induction of viral TK expression begins [1] [nM] | concentration at which induction of BGLF4 expression begins [2] [nM] | concentration of chidamide as good in killing as 1.0 mM sodium butyrate [3] | EBV viral load, Week 3 (EBV) | CMV viral load, Week 3 (CMV) | HHV-6 viral load, Week 3 (HHV-6) [Copies per mL] | patients who achieved complete tumor remissions [4] [patients] | patients who achieved partial tumor remissions [4] [patients] |
| --- | --- | --- | --- | --- | --- | --- | --- | --- |
| Nc1cc(F)ccc1NC(=O)c1ccc(CNC(=O)/C=C/c2cccnc2)cc1 [chidamide] | 500 | 500 | 104 |  |  |  |  |  |
| arginine butyrate |  |  |  | 1,486 Copies per mL | 1,600 Copies per mL | 805 | 4 | 6 |
